Laboratory results reported in patent publication US8673325B1, “Cosmetic compositions comprising EPA and salicylic acid and methods of making and using same” (Dignity Sciences Limited, priority 2012, dated 2014).
≈ marks a conversion by molar mass, not a printed value. Read-outs that look alike come from different tables or passages of the source.

Tested on: P. acnes NCTC737
Test: MIC and MBC against P. acnes by broth micro-dilution (CLSI M11-A5)
Assay type: cell-based
Settings: for MIC: anaerobic 37° C., 48 h, lowest concentration preventing visible growth
Method: Neomycin (“NEO”) was obtained and used as a 10 mg/mL solution in sterile saline. P. acnes NCTC737 was obtained from the National Collection of Type Cultures (Porton Down, UK). Minimum inhibitory (MIC) and bactericidal (MBC) concentration determinations MICs and MBCs were determined against P. acnes by broth micro-dilution according to protocol M11-A5 published by the Clinical and Laboratory Standards Institute (CLSI, 2001). […] ([…] Workstation; Don Whitley Scientific Ltd., Shipley, UK). Absorbance readings (A600) for the bacterial suspensions were determined and fresh media was used to adjust the inoculums to 1×10^7 CFU/mL. Inoculum sizes were confirmed by diluting in phosphate-buffered saline (PBS) and plating on SBA. Each well was inoculated with 5 μL of bacterial suspension. Negative control wells contained culture medium only, while positive control wells contained media inoculated with bacterial suspension. Further inoculated wells controlled for the antimicrobial effects of the greatest concentration of solvent (DMSO or ethanol) used in any of the test wells (ca. 10%). Microtitre plates were incubated anaerobically at 37° C. for 48 h, and then MICs were determined as the lowest concentration of each compound that prevented visible bacterial growth. MBCs were determined by plating 50 μL from each well showing no visible growth on to SBA and incubating these plates anaerobically at 37° C. for 96 h. […] MICs and MBCs were performed in duplicate.

[1] = Cutibacterium acnes, NCTC737, 48 h, read-out: MIC
[2] = Cutibacterium acnes, NCTC737, lowest concentration that killed >99.9% of the initial inoculum, read-out: MBC

SMILES	MIC [1]	MBC (MEC)	MIC	MBC [2]	MBC (lowest concentration that killed >99.9% of the initial inoculum)
O=C(O)CCCCCCCC(=O)O [AZA, azelaic acid]	> 4100 mg/L	>4096 mg/L	>4096 mg/L		
O=C(OOC(=O)c1ccccc1)c1ccccc1 [BPO, benzoyl peroxide]	64 mg/L (≈ 264 µM)	>4096 mg/L		> 4100 mg/L	
CC/C=C\C/C=C\C/C=C\C/C=C\C/C=C\CCCC(=O)O [EPA, eicosapentaenoic acid]	64 to 128 mg/L (≈ 212 to 423 µM)	>4096 mg/L	128 mg/L (≈ 423 µM)	> 4100 mg/L	
NS(=O)(=O)c1cc(C(=O)O)c(NCc2ccco2)cc1Cl [FUS, furosemide]	2 mg/L (≈ 6.05 µM)	256 mg/L (≈ 774 µM)		256 mg/L (≈ 774 µM)	
CCCCC/C=C\C/C=C\C/C=C\CCCCC(=O)O [GLA, gamma-linolenic acid]	64 to 128 mg/L (≈ 230 to 460 µM)	>4096 mg/L	64 mg/L (≈ 230 µM)	> 4100 mg/L	
NC[C@@H]1O[C@H](O[C@H]2[C@@H](O)[C@H](O[C@@H]3[C@@H](O)[C@H](N)C[C@H](N)[C@H]3O[C@H]3O[C@H](CN)[C@@H](O)[C@H](O)[C@H]3N)O[C@@H]2CO)[C@H](N)[C@@H](O)[C@@H]1O [NEO, Neomycin]		16 mg/L (≈ 26 µM)	8 mg/L (≈ 13 µM)		16 mg/L (≈ 26 µM)
O=C(O)c1ccccc1O [SA, salicylic acid]	64 mg/L (≈ 463 µM)	>4096 mg/L		> 4100 mg/L	
